Data set [1] is described as follows: Solubility of gacyclidine base in squalene. In kind it is physicochemical. On the procedure: Squalene was added to 1 gram of gacyclidine free base in 1 milliliter aliquots until the gacyclidine base went into solution. The minimum amount of squalene required to dissolve 1 gram of gacyclidine base was 9 milliliters. A suspension of gacyclidine-containing squalene was prepared by adding 4.3 milliliters of the gacyclidine solution in squalene (1 gram gacyclidine base dissolved in 9 milliliters squalene), 0.5 milliliters of polysorbate 80, 0.5 milliliters of sorbitan trioleate, 35 milligrams of dipotassium phosphate, 1 milligram of citric acid, and 877 milligrams of sodium chloride to a graduated cylinder and bringing the mixture to a final volume of 100 milliliters with water. The suspension of squalene-gacyclidine in phosphate buffered saline was passed through a Microfluidics M-110S high pressure homogenizer equipped with a G10Z 87 micrometer ceramic interaction chamber at 23,000 pounds per square inch. After 7 passes through the homogenizer with the interaction chamber maintained in an ice bath, the average particle diameter of the squalene-gacyclidine emulsion was determined to be 135 nanometers by use of a Horiba LB-550 dynamic light scattering particle size analyzer. After 7 additional passes of the emulsion through the homogenizer with the interaction chamber maintained in an ice bath, the average particle diameter was determined to be 122 nanometers. After 7 additional passes of the emulsion through the homogenizer with the interaction chamber maintained in an ice bath, the average particle diameter was determined to be 114 nanometers. After 7 additional passes of the emulsion through the homogenizer with the interaction chamber maintained in an ice bath, the average particle diameter was determined to be 112 nanometers. Extensive analysis of the squalene-gacyclidine emulsion determined that the average particle diameter was between 107 to 123 nanometers. The pH and osmolality of the squalene-gacyclidine emulsion were determined to be 7.6 and 279 milliosmolal, respectively.

Data set [2] can be described thus: Binding of gacyclidine by PLGA nanoparticles (gacyclidine in suspension by HPLC). In kind it is physicochemical. The text has this:
Water (pH 7.2) was mixed with acetone solutions containing 2 grams/liter 5050 DLG 3E (PLGA, Lakeshore Biomaterials, solution A) or a solution of 2 grams/liter 5050 DLG 3E and 2 grams/liter gacyclidine base (solution B) or a solution of 2 grams/liter gacyclidine base (solution C). Rapid mixing was accomplished by pumping water into a T-mixer at 5 milliliters/minute and solution A, B, or C into the same T-mixer at 1 milliliter/minute.
Acetone was eliminated from the suspension of particles prepared by mixing water with solution B by stirring the suspension in an open beaker for three days. The particle suspension was then passed through a 0.2 micrometer polyethersulfone syringe filter (VWR International) to eliminate larger particles. […] These nanoparticles were then concentrated by pressure dialysis with a 10,000 MWCO cellulose membrane (Amicon) to a final volume of 17 milliliters. The average particle diameter in the concentrated suspension was determined to be 53 nanometers by dynamic light scattering.
To determine the gacyclidine concentration in the nanoparticle suspension, an aliquot (20 to 50 microliters) was diluted with 10 millimolar hydrochloric acid to a final volume of 1.8 milliliter and then analyzed by high-performance liquid chromatography. Gacyclidine in the concentrated suspension was determined to be 0.68 millimolar (0.18 grams/liter; 3.1 milligrams gacyclidine base; 8% of the initial gacyclidine). When this suspension was passed through a 0.2 micrometer polyethersulfone syringe filter (VWR International) it further reduced the concentration of gacyclidine to 0.23 millimolar (0.06 grams/liter; 1.0 milligrams gacyclidine base; 2.5% of the initial gacyclidine). […] After filtration of the pH 9.1 nanoparticle suspension through a 0.2 micrometer polyethersulfone syringe filter (VWR International) the concentration of particles was not reduced, based on light scattering intensity, nor was the average diameter of particles (58 nanometers, post-filtration) substantially altered. However, the concentration of gacyclidine present in the nanoparticle suspension, after adjusting the pH to 9.1 and passage through a 0.2 micrometer filter, was reduced to approximately 0.02 millimolar (0.005 grams/liter; 0.09 milligrams gacyclidine base; 0.2% of the initial gacyclidine). […] Very little of the gacyclidine in the initial nanoparticle preparation was bound to the PLGA nanoparticles, but was instead dissolved in the aqueous phase surrounding the particles.

[3] abbreviates: concentrated PLGA suspension passed through 0.2 micrometer polyethersulfone syringe filter.
The mark [4] stands for this setting: pH 9.1, passage through 0.2 micrometer filter.

For the molecule `CNC1(c2ccccc2Cl)CCCCC1=O` (stereo not shown) [ketamine], the “limit of solubility in the squalene phase” value in data set [1] is “similar”.
`CC1CCCCC1(c1cccs1)N1CCCCC1` (stereo not shown) [gacyclidine]: the “% of the initial gacyclidine in the concentrated suspension” value in data set [2] (PLGA+gacyclidine nanoparticles after 0.2 micrometer filtration and pressure dialysis concentration) was found to be 8%. The “Gacyclidine in the concentrated suspension” value in data set [2] (PLGA+gacyclidine nanoparticles after 0.2 micrometer filtration and pressure dialysis concentration, HPLC) turned out to be 0.68 millimolar. In data set [2] (based on final amount of gacyclidine remaining associated with PLGA nanoparticles), the “affinity for PLGA” value was “does not have a high affinity for PLGA”. In addition, in data set [2] (setting [3]), the “% of the initial gacyclidine after passing concentrated suspension through 0.2 micrometer filter” value was 2.5% and the “concentration of gacyclidine after passing concentrated suspension through 0.2 micrometer filter” value is on record as 0.23 millimolar. Besides, in data set [2] (setting [4]), the “% of the initial gacyclidine after adjusting pH to 9.1 and filtration” value worked out at 0.2%; the “concentration of gacyclidine in the nanoparticle suspension after adjusting pH to 9.1 and filtration” value was “approximately 0.02 millimolar”. Besides, the “limit of solubility in the squalene phase” value in data set [1] is listed as 1 gram of gacyclidine for every 9 milliliters of squalene. Besides, the “minimum amount of squalene required to dissolve 1 gram of gacyclidine base” value in data set [1] (squalene added in 1 milliliter aliquots) was found to be 9 milliliters.

The values are drawn from patent US20120208851A1, “FORMULATIONS” (NEUROSYSTEC CORPORATION, priority 2008, published 2012).
